Experimental data published in patent US10781224B2, “Bis(oxymethyl)phosphinic acid and biogenic metal salts thereof as regulators of plant growth and development” (priority 2016, dated 2020).

Columns and labels:
Type in all cases: in vivo
[1] = tested on: winter wheat (Vershin variety); test: Winter wheat seed treatment with BHMPA salts: germination energy and germination rate
Experimental: (§1) Control—Soaking Seeds in Water;
(§2) Experimental versions—soaking seeds in BHMPA solutions and solutions of BHMPA Ca, Mg, Na, Co, Mn, Cu, and Zn salts at 1·10^−6-1·10^−12% concentrations (doses). The studies were conducted in laboratory in Petri dishes; seed bed—two layers of filter paper. 50 seeds soaked in water (control) and in the solutions of the tested compounds (experimental) were placed into each dish. Wheat, corn, and rice seeds were exposed for one hour.
(§3) Analysis was conducted according to the government standards GOST 12038-84 “Crop seeds. Technical conditions for determining the germination energy and germination rate”, GOST 12044-93 “Crop seeds. Methods for determining disease contamination.”
(§4) Seed germination energy and rate were calculated in percent as an arithmetic mean of the four experimental results (germination energy on the 4th day, wheat germination on the 8th day, rice and corn germination—on the 7th day). Germination was determined based on the germinating power indicators (length of the roots and sprouts and their wet and dry mass per 100 shoots).
(§5) The effect of pre-sowing seed treatment with the claimed BHMPA salts of biogenic metals was studied on winter wheat (Vershin variety), corn (Krasnodar 385 MV variety), and rice (Diamant variety).

[2] = tested on: corn (Krasnodar 385 MV variety); test: Corn seed treatment with BHMPA salts: germination energy and germination rate
Experimental: as §1, §2, §3, §4, §5

[3] = tested on: winter wheat (Vershin variety); test: Winter wheat seed treatment with BHMPA salts: germinating power (length and mass of roots and sprouts)
Experimental: as §2, §4, §5
The above data describe the seed viability only at the initial stage of germination, while the germination ability at the later stage of germination is defined by the initial germinating power. The method for the determination of the germinating power comprises measuring the height of the sprouts and primary roots, as well as the biomass and the dry mass thereof per 100 seedlings. [M. A. Kartuzova. Initial Germinating Power as Method of Biological Assessment of Seed Quality. Selection and Seed Farming, #2, 1953].

[4] = winter wheat Vershin, 1·10^−6% solution
[5] = winter wheat Vershin, 1·10^−7% solution
[6] = winter wheat Vershin, 1·10^−8% solution
[7] = winter wheat Vershin, 1·10^−9% solution
[8] = winter wheat Vershin, 1·10^−10% solution
[9] = winter wheat Vershin, 1·10^−11% solution
[10] = winter wheat Vershin, 1·10^−12% solution
[11] = winter wheat, comparative study vs Melaphen, 1·10^−12% solution
[12] = comparative study vs Melaphen, 1·10^−10% solution
[13] = all the experiments (1·10^−6% to 1·10^−12%)
[14] = comparative study, 1·10^−12% solution

For `O=P([O-])(CO)CO.O=P([O-])(CO)CO.[Ca+2]` [Ca-salt, Calcium BHMPA Salt], the Germination energy [1, 4] was 85.3%, the Germination rate [1, 4] was 88.0% and the Germination energy [1, 5] was 90.8%. It also gave a Germination rate [1, 5] of 94.3%, a Germination energy [1, 6] of 80.9% and a Germination rate [1, 6] of 84.0%. For the same molecule, the Germination energy [1, 7] was 81.2%, the Germination rate [1, 7] was 85.3% and the Germination energy [1, 8] was 86.1%. For the same molecule, the Germination rate [1, 8] was 88.0%, the Germination energy [1, 9] was 87.0% and the Germination rate [1, 9] was 89.3%. The Germination energy [1, 10] was 88.9%, the Germination rate [1, 10] was 92.0% and the Germination energy [1, 11] was 87.0%. It also gave a Germination rate [1, 11] of 93.7%, a Germination energy ([2]; 1·10^−6% solution) of 74.3% and a Germination rate ([2]; 1·10^−6% solution) of 77.0%. It also gave a Germination energy ([2]; 1·10^−7% solution) of 77.3%, a Germination rate ([2]; 1·10^−7% solution) of 82.0% and a Germination energy ([2]; 1·10^−8% solution) of 81.8%. It also gave a Germination rate ([2]; 1·10^−8% solution) of 84.2%, a Germination energy ([2]; 1·10^−9% solution) of 85.0% and a Germination rate ([2]; 1·10^−9% solution) of 87.7%. It also gave a Germination energy ([2]; 1·10^−10% solution) of 87.8%, a Germination rate ([2]; 1·10^−10% solution) of 90.0% and a Germination energy ([2]; 1·10^−11% solution) of 85.5%. It also gave a Germination rate ([2]; 1·10^−11% solution) of 88.3%, a Germination energy ([2]; 1·10^−12% solution) of 82.3% and a Germination rate ([2]; 1·10^−12% solution) of 85.0%. It also gave a Germination energy [2, 12] of 85.0%, a Germination rate [2, 12] of 95.3% and a Length, root ([3]; 1·10^−6% solution) of 7.1 cm. The “Length, root, + % to control” value ([3]; 1·10^−6% solution) was 27%, the Length, sprout ([3]; 1·10^−6% solution) was 6.9 cm and the “Length, sprout, + % to control” value ([3]; 1·10^−6% solution) was 19%. The Mass, dry, root ([3]; 1·10^−6% solution) was 0.45 g/100 plantlings, the “Mass, dry, root, + % to control” value ([3]; 1·10^−6% solution) was 41% and the Mass, dry, sprout ([3]; 1·10^−6% solution) was 0.47 g/100 plantlings. For the same molecule, the “Mass, dry, sprout, + % to control” value ([3]; 1·10^−6% solution) was 9%, the Mass, wet, root ([3]; 1·10^−6% solution) was 4.16 g/100 plantlings and the “Mass, wet, root, + % to control” value ([3]; 1·10^−6% solution) was 12%. For the same molecule, the Mass, wet, sprout ([3]; 1·10^−6% solution) was 5.32 g/100 plantlings, the “Mass, wet, sprout, + % to control” value ([3]; 1·10^−6% solution) was 5% and the Length, root ([3]; 1·10^−7% solution) was 7.4 cm. For the same molecule, the “Length, root, + % to control” value ([3]; 1·10^−7% solution) was 34%, the Length, sprout ([3]; 1·10^−7% solution) was 7.4 cm and the Mass, dry, root ([3]; 1·10^−7% solution) was 0.47 g/100 plantlings. The “Mass, dry, root, + % to control” value ([3]; 1·10^−7% solution) was 47%, the Mass, dry, sprout ([3]; 1·10^−7% solution) was 0.55 g/100 plantlings and the “Mass, dry, sprout, + % to control” value ([3]; 1·10^−7% solution) was 30%. The Mass, wet, root ([3]; 1·10^−7% solution) was 4.89 g/100 plantlings, the “Mass, wet, root, + % to control” value ([3]; 1·10^−7% solution) was 32% and the Mass, wet, sprout ([3]; 1·10^−7% solution) was 5.57 g/100 plantlings. For the same molecule, the “Mass, wet, sprout, + % to control” value ([3]; 1·10^−7% solution) was 10%, the Length, root ([3]; 1·10^−8% solution) was 6.5 cm and the “Length, root, + % to control” value ([3]; 1·10^−8% solution) was 18%. For the same molecule, the Length, sprout ([3]; 1·10^−8% solution) was 6.4 cm, the “Length, sprout, + % to control” value ([3]; 1·10^−8% solution) was 10% and the Mass, dry, root ([3]; 1·10^−8% solution) was 0.39 g/100 plantlings. The “Mass, dry, root, + % to control” value ([3]; 1·10^−8% solution) was 22%, the Mass, dry, sprout ([3]; 1·10^−8% solution) was 0.45 g/100 plantlings and the “Mass, dry, sprout, + % to control” value ([3]; 1·10^−8% solution) was 5%. The Mass, wet, root ([3]; 1·10^−8% solution) was 4.08 g/100 plantlings, the “Mass, wet, root, + % to control” value ([3]; 1·10^−8% solution) was 10% and the Mass, wet, sprout ([3]; 1·10^−8% solution) was 5.32 g/100 plantlings. For the same molecule, the “Mass, wet, sprout, + % to control” value ([3]; 1·10^−8% solution) was 5%, the Length, root ([3]; 1·10^−9% solution) was 6.5 cm and the “Length, root, + % to control” value ([3]; 1·10^−9% solution) was 18%. The Length, sprout ([3]; 1·10^−9% solution) was 6.5 cm, the “Length, sprout, + % to control” value ([3]; 1·10^−9% solution) was 12% and the Mass, dry, root ([3]; 1·10^−9% solution) was 0.41 g/100 plantlings. For the same molecule, the “Mass, dry, root, + % to control” value ([3]; 1·10^−9% solution) was 28%, the Mass, dry, sprout ([3]; 1·10^−9% solution) was 0.48 g/100 plantlings and the “Mass, dry, sprout, + % to control” value ([3]; 1·10^−9% solution) was 12%. The Mass, wet, root ([3]; 1·10^−9% solution) was 4.20 g/100 plantlings, the “Mass, wet, root, + % to control” value ([3]; 1·10^−9% solution) was 13% and the Mass, wet, sprout ([3]; 1·10^−9% solution) was 5.36 g/100 plantlings. The “Mass, wet, sprout, + % to control” value ([3]; 1·10^−9% solution) was 5.5%, the Length, root ([3]; 1·10^−10% solution) was 6.6 cm and the “Length, root, + % to control” value ([3]; 1·10^−10% solution) was 20%. For the same molecule, the Length, sprout ([3]; 1·10^−10% solution) was 6.5 cm, the “Length, sprout, + % to control” value ([3]; 1·10^−10% solution) was 12% and the Mass, dry, root ([3]; 1·10^−10% solution) was 0.45 g/100 plantlings. For the same molecule, the “Mass, dry, root, + % to control” value ([3]; 1·10^−10% solution) was 41%, the Mass, dry, sprout ([3]; 1·10^−10% solution) was 0.53 g/100 plantlings and the “Mass, dry, sprout, + % to control” value ([3]; 1·10^−10% solution) was 23%. For the same molecule, the Mass, wet, root ([3]; 1·10^−10% solution) was 4.34 g/100 plantlings, the “Mass, wet, root, + % to control” value ([3]; 1·10^−10% solution) was 17% and the Mass, wet, sprout ([3]; 1·10^−10% solution) was 5.41 g/100 plantlings. The “Mass, wet, sprout, + % to control” value ([3]; 1·10^−10% solution) was 6.5%, the Length, root ([3]; 1·10^−11% solution) was 7.2 cm and the “Length, root, + % to control” value ([3]; 1·10^−11% solution) was 31%. The Length, sprout ([3]; 1·10^−11% solution) was 6.9 cm, the “Length, sprout, + % to control” value ([3]; 1·10^−11% solution) was 19% and the Mass, dry, root ([3]; 1·10^−11% solution) was 0.46 g/100 plantlings. For the same molecule, the “Mass, dry, root, + % to control” value ([3]; 1·10^−11% solution) was 44%, the Mass, dry, sprout ([3]; 1·10^−11% solution) was 0.54 g/100 plantlings and the “Mass, dry, sprout, + % to control” value ([3]; 1·10^−11% solution) was 25.5%. The Mass, wet, root ([3]; 1·10^−11% solution) was 4.70 g/100 plantlings, the “Mass, wet, root, + % to control” value ([3]; 1·10^−11% solution) was 27% and the Mass, wet, sprout ([3]; 1·10^−11% solution) was 5.50 g/100 plantlings. For the same molecule, the “Mass, wet, sprout, + % to control” value ([3]; 1·10^−11% solution) was 8%, the Length, root ([3]; 1·10^−12% solution) was 7.4 cm and the “Length, root, + % to control” value ([3]; 1·10^−12% solution) was 34%. For the same molecule, the Length, sprout ([3]; 1·10^−12% solution) was 7.9 cm, the “Length, sprout, + % to control” value ([3]; 1·10^−12% solution) was 36% and the Mass, dry, root ([3]; 1·10^−12% solution) was 0.48 g/100 plantlings. The “Mass, dry, root, + % to control” value ([3]; 1·10^−12% solution) was 50%, the Mass, dry, sprout ([3]; 1·10^−12% solution) was 0.59 g/100 plantlings and the “Mass, dry, sprout, + % to control” value ([3]; 1·10^−12% solution) was 37%. The Mass, wet, root ([3]; 1·10^−12% solution) was 5.19 g/100 plantlings, the “Mass, wet, root, + % to control” value ([3]; 1·10^−12% solution) was 40% and the Mass, wet, sprout ([3]; 1·10^−12% solution) was 6.55 g/100 plantlings. The “Mass, wet, sprout, + % to control” value ([3]; 1·10^−12% solution) was 29%, the “increase in mass of sprouts” value [3, 13] was 5%-50% and the “increase in size of sprouts” value [3, 13] was 10%-36%. The Length, root [3, 14] was 9.7 cm, the “Length, root, + % to control” value [3, 14] was 11% and the Length, sprout [3, 14] was 6.4 cm. For the same molecule, the “Length, sprout, + % to control” value [3, 14] was 3%, the Mass, dry, root [3, 14] was 0.66 g/100 plantlings and the “Mass, dry, root, + % to control” value [3, 14] was 6%. The Mass, dry, sprout [3, 14] was 0.54 g/100 plantlings, the “Mass, dry, sprout, + % to control” value [3, 14] was 6% and the Mass, wet, root [3, 14] was 5.03 g/100 plantlings. For the same molecule, the “Mass, wet, root, + % to control” value [3, 14] was 40%, the Mass, wet, sprout [3, 14] was 4.88 g/100 plantlings and the “Mass, wet, sprout, + % to control” value [3, 14] was 23%.
